Experiment: mn = molality of the nth substance listed, in mol/kg
Settings: 100 kPa, Liquid; for speed of sound: Frequency=3 MHz, Sing-around technique in a fixed-path interferometer; for mass density: Vibrating tube method

[Ba+2].[O-][Cl+3]([O-])([O-])[O-].[O-][Cl+3]([O-])([O-])[O-] [barium perchlorate] + CN(C)C=O
Settings	mass density, 298.15 K [kg/m3]	mass density, 303.15 K [kg/m3]	mass density, 308.15 K [kg/m3]	mass density, 313.15 K [kg/m3]	mass density, 318.15 K [kg/m3]	speed of sound, 298.15 K [m/s]	speed of sound, 303.15 K [m/s]	speed of sound, 308.15 K [m/s]	speed of sound, 313.15 K [m/s]	speed of sound, 318.15 K [m/s]
m1 = 0.01339	947.432	942.667	937.889	933.096	928.287	1458.1	1438.9	1419.6	1400.4	1381.3
m1 = 0.02254	949.821	945.058	940.281	935.489	930.686	1458.7	1439.5	1420.2	1401.1	1381.9
m1 = 0.0331	952.562	947.81	943.03	938.243	933.442	1459.5	1440.2	1420.9	1401.8	1382.7
m1 = 0.04712	956.179	951.422	946.652	941.866	937.07	1459.9	1440.9	1421.7	1402.7	1383.7
m1 = 0.06582	960.992	956.235	951.468	946.686	941.893	1460.9	1441.9	1422.8	1403.8	1384.9
m1 = 0.08395	965.617	960.865	956.099	951.321	946.53	1461.8	1442.8	1423.8	1405	1386.1
m1 = 0.1061	971.226	966.477	961.715	956.94	952.153	1462.8	1444	1425.1	1406.3	1387.5
m1 = 0.1322	977.835	973.089	968.33	963.559	958.776	1464.1	1445.4	1426.6	1407.8	1389.2
m1 = 0.1588	984.508	979.766	975.008	970.24	965.461	1465.4	1446.8	1428	1409.4	1390.8
m1 = 0.1995	994.63	989.888	985.134	980.371	975.596	1467.4	1448.9	1430.3	1411.8	1393.3

O=S(=O)([O-])C(F)(F)F.O=S(=O)([O-])C(F)(F)F.[Sr+2] [strontium trifluoromethanesulfonate] + CC(=O)N(C)C
Settings	mass density, 298.15 K [kg/m3]	mass density, 303.15 K [kg/m3]	mass density, 308.15 K [kg/m3]	mass density, 313.15 K [kg/m3]	mass density, 318.15 K [kg/m3]	speed of sound, 298.15 K [m/s]	speed of sound, 303.15 K [m/s]	speed of sound, 308.15 K [m/s]	speed of sound, 313.15 K [m/s]	speed of sound, 318.15 K [m/s]
m1 = 0.009611	938.686	934.078	929.46	924.833	920.199	1456.3	1436.5	1416.7	1397	1377.5
m1 = 0.01616	940.308	935.702	931.087	926.462	921.831	1456.5	1436.8	1417	1397.3	1377.8
m1 = 0.02452	942.361	937.757	933.142	928.518	923.888	1456.8	1437.1	1417.4	1397.8	1378.3
m1 = 0.0346	944.817	940.215	935.603	930.982	926.353	1456.9	1437.2	1417.5	1398	1378.6
m1 = 0.04877	948.237	943.637	939.026	934.407	929.78	1457.1	1437.5	1418	1398.6	1379.2
m1 = 0.06177	951.363	946.763	942.151	937.533	932.906	1457.3	1437.8	1418.3	1398.9	1379.7
m1 = 0.07813	955.261	950.663	946.052	941.432	936.806	1457.5	1438.1	1418.7	1399.3	1380.1
m1 = 0.09814	960.007	955.407	950.795	946.177	941.551	1457.7	1438.4	1419.1	1399.8	1380.7
m1 = 0.1176	964.581	959.98	955.367	950.748	946.121	1458	1438.8	1419.5	1400.3	1381.3
m1 = 0.1476	971.566	966.955	962.34	957.717	953.091	1458.3	1439	1419.8	1400.8	1381.8

O=S(=O)([O-])C(F)(F)F.O=S(=O)([O-])C(F)(F)F.[Ca+2] [calcium trifluoromethanesulfonate] + CC(=O)N(C)C
Settings	mass density, 298.15 K [kg/m3]	mass density, 303.15 K [kg/m3]	mass density, 308.15 K [kg/m3]	mass density, 313.15 K [kg/m3]	mass density, 318.15 K [kg/m3]	speed of sound, 298.15 K [m/s]	speed of sound, 303.15 K [m/s]	speed of sound, 308.15 K [m/s]	speed of sound, 313.15 K [m/s]	speed of sound, 318.15 K [m/s]
m1 = 0.02187	940.927	936.332	931.736	927.121	922.5	1457	1437.3	1417.6	1398	1378.6
m1 = 0.03271	943.201	938.61	934.019	929.41	924.794	1457.4	1437.8	1418.2	1398.7	1379.3
m1 = 0.04637	946.038	941.451	936.856	932.246	927.636	1458	1438.5	1419	1399.4	1380
m1 = 0.06551	949.951	945.373	940.788	936.196	931.596	1458.5	1439	1419.5	1400.2	1380.9
m1 = 0.08271	953.447	948.878	944.3	939.716	935.124	1459	1439.6	1420.2	1400.9	1381.7
m1 = 0.1052	957.976	953.415	948.847	944.27	939.688	1459.6	1440.3	1421	1401.8	1382.7
m1 = 0.1305	963.026	958.471	953.91	949.342	944.771	1460.3	1441	1421.8	1402.7	1383.7
m1 = 0.1577	968.401	963.856	959.304	954.745	950.183	1460.9	1441.8	1422.7	1403.7	1384.8
m1 = 0.1977	976.212	971.679	967.14	962.594	958.045	1461.8	1442.8	1423.9	1405	1386.2

From the NIST ThermoML archive (doi:10.1016/j.jct.2015.08.033)
